Assay results as given in PMC11357161, “Phytochemical Analysis, Biological Activities, and Docking of Phenolics from Shoot Cultures of Hypericum perforatum L. Transformed by Agrobacterium rhizogenes” (Molecules, 2024).
Marks after values point to notes of the source that are not given here.

Legend:
Type in all cases: biochemical
[1] = biological target: T1, monoamine oxidase-A (MAO-A) (Homo sapiens, UniProt P21397); assay: MAO-A inhibitory activity in vitro
T1 sequence (P21397 1-527): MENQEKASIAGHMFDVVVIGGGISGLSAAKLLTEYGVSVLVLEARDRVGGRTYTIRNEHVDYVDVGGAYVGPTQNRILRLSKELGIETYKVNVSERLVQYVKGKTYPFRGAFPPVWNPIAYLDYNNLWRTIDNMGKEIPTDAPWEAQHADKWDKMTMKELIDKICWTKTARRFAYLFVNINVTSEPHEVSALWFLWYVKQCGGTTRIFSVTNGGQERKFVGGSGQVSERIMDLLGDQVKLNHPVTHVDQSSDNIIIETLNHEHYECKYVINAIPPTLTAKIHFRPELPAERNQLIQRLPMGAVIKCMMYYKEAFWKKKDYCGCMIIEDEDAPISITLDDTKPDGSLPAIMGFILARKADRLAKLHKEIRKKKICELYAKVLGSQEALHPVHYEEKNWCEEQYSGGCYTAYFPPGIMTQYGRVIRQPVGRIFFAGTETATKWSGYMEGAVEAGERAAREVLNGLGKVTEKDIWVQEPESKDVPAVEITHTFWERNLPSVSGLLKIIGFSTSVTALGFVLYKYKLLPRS
Experimental: (§1) Shoot methanolic extracts were evaporated in a freeze-dryer (Labconco, Kansas City, MO, USA), and dry extracts were dissolved in 50% dimethyl sulfoxide. […] The protocols for MAO-A, AChE, BChE, TYR, α-AM, α-GL, PL, and CHE inhibitory activities were presented in our previous studies. […] Three replicates were used for all enzyme-inhibitory tests.

[2] = biological target: T2, cholesterol esterase (CHE) (Homo sapiens, UniProt P19835); assay: CHE inhibitory activity in vitro; conditions: concentration that inhibits 50% of enzyme activity; mean ± SD, three replicates
T2 sequence (P19835 21-753): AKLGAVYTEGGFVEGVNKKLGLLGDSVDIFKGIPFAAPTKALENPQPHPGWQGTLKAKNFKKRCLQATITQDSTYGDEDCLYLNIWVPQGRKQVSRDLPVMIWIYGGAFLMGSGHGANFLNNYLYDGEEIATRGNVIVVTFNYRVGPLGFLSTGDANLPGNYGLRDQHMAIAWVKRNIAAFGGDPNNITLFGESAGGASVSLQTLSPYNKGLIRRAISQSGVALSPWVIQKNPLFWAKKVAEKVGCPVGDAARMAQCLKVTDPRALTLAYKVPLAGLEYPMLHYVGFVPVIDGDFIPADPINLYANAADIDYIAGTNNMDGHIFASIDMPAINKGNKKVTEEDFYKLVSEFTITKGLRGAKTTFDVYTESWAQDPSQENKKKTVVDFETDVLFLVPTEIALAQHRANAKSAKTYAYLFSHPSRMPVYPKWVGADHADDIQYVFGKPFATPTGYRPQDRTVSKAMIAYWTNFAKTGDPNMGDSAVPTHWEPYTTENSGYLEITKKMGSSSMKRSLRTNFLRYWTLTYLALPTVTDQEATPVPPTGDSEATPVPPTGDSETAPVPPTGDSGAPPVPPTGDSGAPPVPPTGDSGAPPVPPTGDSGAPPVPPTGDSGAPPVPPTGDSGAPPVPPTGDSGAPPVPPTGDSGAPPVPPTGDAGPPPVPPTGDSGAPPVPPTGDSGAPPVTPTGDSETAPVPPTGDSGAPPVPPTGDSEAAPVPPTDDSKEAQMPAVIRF
Experimental: as §1

[3] = biological target: α-amylase (α-AM) (Aspergillus oryzae, UniProt P0C1B3); assay: α-AM inhibitory activity in vitro; conditions: concentration that inhibits 25% of enzyme activity; mean ± SD, three replicates
Experimental: as §1

SMILES: Oc1ccc(Cl)cc1Cl [DCP, 2,4-dichlorophenol]
- IC50 [1]: 226 µM

SMILES: CCC(C)(C)C(=O)O[C@H]1C[C@@H](C)C=C2C=C[C@H](C)[C@H](CC[C@@H]3C[C@@H](O)CC(=O)O3)[C@H]21 [Simvastatin]
- IC50 [2]: 383 µM

SMILES: C[C@H]1O[C@H](O[C@H]2[C@H](O)[C@@H](O)[C@@H](O[C@H]3[C@H](O)[C@@H](O)C(O)O[C@@H]3CO)O[C@@H]2CO)[C@H](O)[C@@H](O)[C@@H]1N[C@H]1C=C(CO)[C@@H](O)[C@H](O)[C@H]1O (stereo partly drawn) [Acarbose]
- α-AM (IC25) [3]: 6.77 ± 0.76 ^a µg·mL^−1
